Test results taken from patent publication US20220119354A1, “DIAMINO-SUBSTITUTED PYRIDINES AND PYRIMIDINES AS HERBICIDES” (FMC Corporation, priority 2019, published 2022).

What was measured:
Format in all cases: in vivo
[1] = test system: barnyardgrass (Echinochloa crus-galli); assay: Test A preemergence, barnyardgrass; settings: 0 to 100 scale, 0 is no effect, 100 is complete control
Outline: (§1)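 Compound, in a non-phytotoxic solvent blend containing surfactant, is sprayed onto soil immediately after sowing or onto young plants (one- to two-leaf, 2–10 cm). After roughly 10 d under greenhouse conditions, injury is judged by eye relative to untreated plants on a 0–100 control scale.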

[2] = test system: kochia (Kochia scoparia); assay: Test A preemergence, kochia; settings: 0 to 100 scale, 0 is no effect, 100 is complete control
Outline: as §1

[3] = test system: ragweed (common ragweed, Ambrosia elatior); assay: Test A preemergence, ragweed; settings: 0 to 100 scale, 0 is no effect, 100 is complete control
Outline: as §1

[4] = test system: ryegrass, Italian (Lolium multiflorum); assay: Test A preemergence, Italian ryegrass; settings: 0 to 100 scale, 0 is no effect, 100 is complete control
Outline: as §1

[5] = test system: foxtail, giant (Setaria faberii); assay: Test A preemergence, giant foxtail; settings: 0 to 100 scale, 0 is no effect, 100 is complete control
Outline: as §1

[6] = test system: pigweed (Amaranthus retroflexus); assay: Test A preemergence, pigweed; settings: 0 to 100 scale, 0 is no effect, 100 is complete control
Outline: as §1

[7] = test system: barnyardgrass (Echinochloa crus-galli); assay: Test A postemergence, barnyardgrass; settings: 0 to 100 scale, 0 no effect, 100 complete control
Outline: as §1

[8] = test system: kochia (Kochia scoparia); assay: Test A postemergence, kochia; settings: 0 to 100 scale, 0 no effect, 100 complete control
Outline: as §1

[9] = test system: ragweed (common ragweed, Ambrosia elatior); assay: Test A postemergence, ragweed; settings: 0 to 100 scale, 0 no effect, 100 complete control
Outline: as §1

[10] = test system: ryegrass, Italian (Lolium multiflorum); assay: Test A postemergence, Italian ryegrass; settings: 0 to 100 scale, 0 no effect, 100 complete control
Outline: as §1

[11] = test system: foxtail, giant (Setaria faberii); assay: Test A postemergence, giant foxtail; settings: 0 to 100 scale, 0 no effect, 100 complete control
Outline: as §1

[12] = test system: pigweed (Amaranthus retroflexus); assay: Test A postemergence, pigweed; settings: 0 to 100 scale, 0 no effect, 100 complete control
Outline: as §1

[13] = test system: wheat (Triticum aestivum); assay: Test A postemergence, wheat; settings: 0 to 100 scale, 0 no effect, 100 complete control
Outline: as §1

[14] = test system: corn (Zea mays); assay: Test A postemergence, corn; settings: 0 to 100 scale, 0 no effect, 100 complete control
Outline: as §1

[15] = test system: blackgrass (Alopecurus myosuroides); assay: Test A postemergence, blackgrass; settings: 0 to 100 scale, 0 no effect, 100 complete control
Outline: as §1

[16] = test system: galium (catchweed bedstraw, Galium aparine); assay: Test A postemergence, galium; settings: 0 to 100 scale, 0 no effect, 100 complete control
Outline: as §1

[17] = test system: rice (Oryza sativa); assay: Test B flooded paddy test, rice; settings: Flood, 250 g ai/ha, applied to paddy water, 2-leaf stage, visual evaluation after 13 to 15 d
Outline: (§2)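 Pots flooded to 3 cm above the soil when treated, with test compound added straight to the water and the flood maintained. Treated plants were at the 2-leaf stage and stayed 13–15 d in greenhouse. Response versus untreated controls scored visually from 0 (no effect) to 100 (complete control).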

[18] = test system: sedge, umbrella (small-flower umbrella sedge, Cyperus difformis); assay: Test B flooded paddy test, umbrella sedge; settings: Flood, 250 g ai/ha, applied to paddy water, 2-leaf stage, visual evaluation after 13 to 15 d
Outline: as §2

[19] = test system: ducksalad (Heteranthera limosa); assay: Test B flooded paddy test, ducksalad; settings: Flood, 250 g ai/ha, applied to paddy water, 2-leaf stage, visual evaluation after 13 to 15 d
Outline: as §2

[20] = test system: barnyardgrass (Echinochloa crus-galli); assay: Test B flooded paddy test, barnyardgrass; settings: Flood, 250 g ai/ha, applied to paddy water, 2-leaf stage, visual evaluation after 13 to 15 d
Outline: as §2

CC[C@H](Nc1ncc(C(F)(F)F)c(N)n1)c1coc2ccccc12 [Compound 81]
Barnyardgrass plant response rating ([1]; 125 g ai/ha): 0
Barnyardgrass plant response rating ([1]; 500 g ai/ha): 0
Kochia plant response rating ([2]; 125 g ai/ha): 0
Kochia plant response rating ([2]; 500 g ai/ha): 20
Ragweed plant response rating ([3]; 125 g ai/ha): 0
Ragweed plant response rating ([3]; 500 g ai/ha): 70
Ryegrass, Italian plant response rating ([4]; 125 g ai/ha): 0
Ryegrass, Italian plant response rating ([4]; 500 g ai/ha): 60
Foxtail, Giant plant response rating ([5]; 125 g ai/ha): 0
Foxtail, Giant plant response rating ([5]; 500 g ai/ha): 20
Pigweed plant response rating ([6]; 125 g ai/ha): 0
Pigweed plant response rating ([6]; 500 g ai/ha): 10
Plant response rating, Barnyardgrass ([7]; 125 g ai/ha): 0
Plant response rating, Barnyardgrass ([7]; 500 g ai/ha): 0
Plant response rating, Kochia ([8]; 125 g ai/ha): 20
Plant response rating, Kochia ([8]; 500 g ai/ha): 40
Plant response rating, Ragweed ([9]; 125 g ai/ha): 0
Plant response rating, Ragweed ([9]; 500 g ai/ha): 20
Plant response rating, Ryegrass, Italian ([10]; 125 g ai/ha): 0
Plant response rating, Ryegrass, Italian ([10]; 500 g ai/ha): 0
Plant response rating, Foxtail, Giant ([11]; 125 g ai/ha): 0
Plant response rating, Foxtail, Giant ([11]; 500 g ai/ha): 10
Plant response rating, Pigweed ([12]; 125 g ai/ha): 0
Plant response rating, Pigweed ([12]; 500 g ai/ha): 80
Plant response rating, Wheat ([13]; 125 g ai/ha): 0
Plant response rating, Wheat ([13]; 500 g ai/ha): 0
Plant response rating, Corn ([14]; 125 g ai/ha): 0
Plant response rating, Corn ([14]; 500 g ai/ha): 0
Plant response rating, Blackgrass ([15]; 125 g ai/ha): 0
Plant response rating, Blackgrass ([15]; 500 g ai/ha): 0
Plant response rating, Galium ([16]; 125 g ai/ha): 0
Plant response rating, Galium ([16]; 500 g ai/ha): 30
Plant response rating, Rice (0 to 100 scale, 0 is no effect, 100 is complete control) [17]: 0
Plant response rating, Sedge, Umbrella (0 to 100 scale, 0 is no effect, 100 is complete control) [18]: 0
Plant response rating, Ducksalad (0 to 100 scale, 0 is no effect, 100 is complete control) [19]: 0
Plant response rating, Barnyardgrass (0 to 100 scale, 0 is no effect, 100 is complete control) [20]: 0

Nc1nc(N[C@@H](c2cc3ccccc3s2)C2CC2)ncc1C(F)(F)F [Compound 84]
Barnyardgrass plant response rating ([1]; 125 g ai/ha): 90
Barnyardgrass plant response rating ([1]; 500 g ai/ha): 90
Kochia plant response rating ([2]; 125 g ai/ha): 90
Kochia plant response rating ([2]; 500 g ai/ha): 90
Ragweed plant response rating ([3]; 125 g ai/ha): 100
Ragweed plant response rating ([3]; 500 g ai/ha): 100
Ryegrass, Italian plant response rating ([4]; 125 g ai/ha): 70
Ryegrass, Italian plant response rating ([4]; 500 g ai/ha): 90
Foxtail, Giant plant response rating ([5]; 125 g ai/ha): 90
Foxtail, Giant plant response rating ([5]; 500 g ai/ha): 100
Pigweed plant response rating ([6]; 125 g ai/ha): 100
Pigweed plant response rating ([6]; 500 g ai/ha): 100
Plant response rating, Barnyardgrass ([7]; 125 g ai/ha): 70
Plant response rating, Barnyardgrass ([7]; 500 g ai/ha): 100
Plant response rating, Kochia ([8]; 125 g ai/ha): 80
Plant response rating, Kochia ([8]; 500 g ai/ha): 90
Plant response rating, Ragweed ([9]; 125 g ai/ha): 40
Plant response rating, Ragweed ([9]; 500 g ai/ha): 90
Plant response rating, Ryegrass, Italian ([10]; 125 g ai/ha): 0
Plant response rating, Ryegrass, Italian ([10]; 500 g ai/ha): 70
Plant response rating, Foxtail, Giant ([11]; 125 g ai/ha): 50
Plant response rating, Foxtail, Giant ([11]; 500 g ai/ha): 90
Plant response rating, Pigweed ([12]; 125 g ai/ha): 100
Plant response rating, Pigweed ([12]; 500 g ai/ha): 100
Plant response rating, Wheat ([13]; 125 g ai/ha): 0
Plant response rating, Wheat ([13]; 500 g ai/ha): 0
Plant response rating, Corn ([14]; 125 g ai/ha): 0
Plant response rating, Corn ([14]; 500 g ai/ha): 0
Plant response rating, Blackgrass ([15]; 125 g ai/ha): 0
Plant response rating, Blackgrass ([15]; 500 g ai/ha): 0
Plant response rating, Galium ([16]; 125 g ai/ha): 60
Plant response rating, Galium ([16]; 500 g ai/ha): 80
Plant response rating, Rice (0 to 100 scale, 0 is no effect, 100 is complete control) [17]: 20
Plant response rating, Sedge, Umbrella (0 to 100 scale, 0 is no effect, 100 is complete control) [18]: 90
Plant response rating, Ducksalad (0 to 100 scale, 0 is no effect, 100 is complete control) [19]: 65
Plant response rating, Barnyardgrass (0 to 100 scale, 0 is no effect, 100 is complete control) [20]: 85
